Experimental data: patent US20190364896A1, “SYNERGISTIC WEED CONTROL FROM APPLICATIONS OF PYRIDINE CARBOXYLIC ACID HERBICIDES AND ALS INHIBITORS” (Dow AgroSciences LLC, priority 2014, published 2019)
Like-named read-outs stand apart in the source and are kept apart here.

Assays:
[1] = system: spring rape (Brassica napus, BRSNN); test: Postemergence herbicidal activity, greenhouse trial (visual injury 0-100%); type: in vivo
[2] = system: chickweed (Stellaria media, STEME); test: as above; type: in vivo; details: Stellaria media, post-emergence, read-out: % visual injury Obs
Outline: (§1)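 Read-out is a visual 0–100% injury score against solvent-blank-sprayed controls, taken 20-22 d after treatment; expected mixture effects came from Colby's equation. Two-way combinations in 1.5% v/v crop oil concentrate were sprayed at 187 L/ha onto plants at the second or third true leaf stage.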

[3] = system: barnyardgrass (Echinochloa crus-galli, ECHCG); test: as above; type: in vivo; details: Echinochloa crus-galli, post-emergence, read-out: % visual injury Obs
Outline: as §1

[4] = system: wild oat (Avena fatua, AVEFA); test: as above; type: in vivo
Outline: as §1

[5] = system: common lambsquarters (Chenopodium album L., CHEAL); test: as above; type: in vivo; details: Chenopodium album, post-emergence, read-out: % visual injury Obs
Outline: as §1

[6] = system: ivyleaf morning-glory (Ipomoea hederacea, IPOHE); test: as above; type: in vivo; details: Ipomoea hederacea, post-emergence, read-out: % visual injury Obs
Outline: as §1

[7] = system: giant foxtail (Setaria faberi, SETFA); test: as above; type: in vivo
[8] = system: winter wheat (Triticum aestivum, TRZAW); test: Postemergence crop injury (phytotoxicity), greenhouse trial (visual injury 0-100%); details: 7.5 g ai/ha
Experimental: Seeds of the desired test plant species were planted in Sun Gro MetroMix® 306 planting mixture, which typically has a pH of 6.0 to 6.8 and an organic matter content of about 30 percent, in plastic pots with a surface area of 103.2 square centimeters (cm^2). […] The plants were grown for 7-36 days (d) in a greenhouse with an approximate 14-hour (h) photoperiod which was maintained at about 23° C. during the day and 22° C. during the night. Nutrients and water were added on a regular basis and supplemental lighting was provided with overhead metal halide 1000-Watt lamps as necessary. The plants were employed for testing when they reached the second or third true leaf stage.
Weighed amounts of technical material were dissolved in a volume of 97:3 volume per volume (v/v) acetone/dimethyl sulfoxide (DMSO) to stock solutions. […] The concentrated stock solutions were diluted with an aqueous mixture of 1.5% v/v of Agri-dex crop oil concentrate to provide the appropriate application rates. Compound requirements are based upon a 12 milliliter (mL) application volume at a rate of 187 liters per hectare (L/ha). Spray solutions of the experimental compound mixtures were prepared by adding the stock solutions to the appropriate amount of dilution solution to form a 12 mL spray solution in two-way combinations. Formulated compounds were applied to the plant material with an overhead Mandel track sprayer equipped with 8002E nozzles calibrated to deliver 187 L/ha over an application area of 0.503 square meters (m^2) at a spray height of 18 inches (43 centimeters (cm)) above average plant canopy. Control plants were sprayed in the same manner with the solvent blank. Application rates for component (a) are in g ae/ha, and application rates for component (b) are in g ai/ha.
The treated plants and control plants were placed in a greenhouse as described above and watered by sub-irrigation to prevent wash-off of the test compounds. After 20-22 d, the condition of the test plants as compared with that of the control plants was determined visually and scored on a scale of 0 to 100 percent where 0 corresponds to no injury and 100 corresponds to complete kill. The condition of the test plants was compared with that of the control plants as determined visually and scored on a scale of 0 to 100 percent, where 0 corresponds to no injury and 100 corresponds to complete kill. Colby's equation was used to determine the herbicidal effects expected from the mixtures.
Compound 2 was combined with florasulam and applied to winter wheat (TRZAW) and the phytotoxicity of the herbicidal composition was measured. In addition, the efficacy of the herbicidal composition on poinsettia (Euphorbia heterophylla, EPHHL) and […] (Cyperus esculentus, CYPES) was evaluated.
Weighed amounts of technical or formulated material (emulsifiable concentrate (EC) or soluble concentrate (SL)) were dissolved in a volume of 97:3 volume per volume (v/v) acetone/dimethyl sulfoxide (DMSO) to stock solutions. […] The concentrated stock solutions were diluted with an aqueous mixture of 1.5% v/v of Agri-dex crop oil concentrate to provide the appropriate application rates. Compound requirements are based upon a 12 milliliter (mL) application volume at a rate of 187 liters per hectare (L/ha). Spray solutions of the experimental compound mixtures were prepared by adding the stock solutions to the appropriate amount of dilution solution to form a 12 mL spray solution in two-way combinations. […]

For `Nc1c(F)c(-c2ccc3cc[nH]c3c2F)nc(C(=O)O)c1Cl` [Compound 1], the “% visual injury Obs” value ([1]; 5 g ae/ha) was 50%, the “% visual injury Obs” value ([1]; BRSNN, Compound 1 5 g ae/ha) was 70% and the pest or weed control at 5 g/ha ([2]; 5 g ae/ha) was 50%. It also gave a pest or weed control at 10 g/ha ([2]; 10 g ae/ha) of 70%, a pest or weed control at 5 g/ha ([2]; STEME, Compound 1 5 g ae/ha) of 70% and a pest or weed control at 10 g/ha ([2]; STEME, Compound 1 10 g ae/ha) of 70%. For the same compound, the pest or weed control at 10 g/ha ([3]; 10 g ae/ha) was 60%, the pest or weed control at 5 g/ha ([3]; ECHCG, Compound 1 5 g ae/ha) was 50% and the “% visual injury Obs” value ([4]; 5 g ae/ha) was 0%. For the same compound, the “% visual injury Obs” value ([4]; 10 g ae/ha) was 0%, the pest or weed control at 5 g/ha ([5]; 5 g ae/ha) was 80% and the pest or weed control at 10 g/ha ([5]; 10 g ae/ha) was 100%. For the same compound, the pest or weed control at 5 g/ha ([5]; CHEAL, Compound 1 5 g ae/ha) was 90%, the pest or weed control at 10 g/ha ([5]; CHEAL, Compound 1 10 g ae/ha) was 100% and the pest or weed control at 10 g/ha ([6]; 10 g ae/ha) was 10%. For the same compound, the pest or weed control at 10 g/ha ([6]; IPOHE, Compound 1 10 g ae/ha) was 10%, the “% visual injury Obs” value ([7]; 5 g ae/ha) was 10% and the “% visual injury Obs” value ([7]; 10 g ae/ha) was 50%. For the same compound, the “% visual injury Obs” value ([7]; SETFA, Compound 1 5 g ae/ha) was 10% and the “% visual injury Obs” value ([7]; SETFA, Compound 1 10 g ae/ha) was 50%.

For `CCCOc1nn(C(=O)NS(=O)(=O)c2ccccc2C(=O)OC)c(=O)n1C` [Propoxycarbazone, propoxycarbazone], the “% visual injury Obs” value [8] was 10%, the pest or weed control at […] ([2]; 7.5 g ai/ha) was 50% and the pest or weed control at […] ([3]; 7.5 g ai/ha) was 95%. For the same compound, the “% visual injury Obs” value ([4]; 7.5 g ai/ha) was 85%, the pest or weed control at […] ([5]; 7.5 g ai/ha) was 30% and the pest or weed control at […] ([6]; 7.5 g ai/ha) was 95%.
